Measured values from BindingDB's records for doi:10.1016/s0960-894x(02)00051-3 (Eli Lilly, 2002).

Target: Multidrug resistance-associated protein 1 (ABCC1) (Homo sapiens) (UniProt P33527)
Assay: In vitro for its inhibitory activity against MRP1-transfected HeLa-T5 cell line in the presence of doxorubicin

Multidrug resistance-associated protein 1 (ABCC1) (Homo sapiens), sequence (P33527 whole entry, looked up): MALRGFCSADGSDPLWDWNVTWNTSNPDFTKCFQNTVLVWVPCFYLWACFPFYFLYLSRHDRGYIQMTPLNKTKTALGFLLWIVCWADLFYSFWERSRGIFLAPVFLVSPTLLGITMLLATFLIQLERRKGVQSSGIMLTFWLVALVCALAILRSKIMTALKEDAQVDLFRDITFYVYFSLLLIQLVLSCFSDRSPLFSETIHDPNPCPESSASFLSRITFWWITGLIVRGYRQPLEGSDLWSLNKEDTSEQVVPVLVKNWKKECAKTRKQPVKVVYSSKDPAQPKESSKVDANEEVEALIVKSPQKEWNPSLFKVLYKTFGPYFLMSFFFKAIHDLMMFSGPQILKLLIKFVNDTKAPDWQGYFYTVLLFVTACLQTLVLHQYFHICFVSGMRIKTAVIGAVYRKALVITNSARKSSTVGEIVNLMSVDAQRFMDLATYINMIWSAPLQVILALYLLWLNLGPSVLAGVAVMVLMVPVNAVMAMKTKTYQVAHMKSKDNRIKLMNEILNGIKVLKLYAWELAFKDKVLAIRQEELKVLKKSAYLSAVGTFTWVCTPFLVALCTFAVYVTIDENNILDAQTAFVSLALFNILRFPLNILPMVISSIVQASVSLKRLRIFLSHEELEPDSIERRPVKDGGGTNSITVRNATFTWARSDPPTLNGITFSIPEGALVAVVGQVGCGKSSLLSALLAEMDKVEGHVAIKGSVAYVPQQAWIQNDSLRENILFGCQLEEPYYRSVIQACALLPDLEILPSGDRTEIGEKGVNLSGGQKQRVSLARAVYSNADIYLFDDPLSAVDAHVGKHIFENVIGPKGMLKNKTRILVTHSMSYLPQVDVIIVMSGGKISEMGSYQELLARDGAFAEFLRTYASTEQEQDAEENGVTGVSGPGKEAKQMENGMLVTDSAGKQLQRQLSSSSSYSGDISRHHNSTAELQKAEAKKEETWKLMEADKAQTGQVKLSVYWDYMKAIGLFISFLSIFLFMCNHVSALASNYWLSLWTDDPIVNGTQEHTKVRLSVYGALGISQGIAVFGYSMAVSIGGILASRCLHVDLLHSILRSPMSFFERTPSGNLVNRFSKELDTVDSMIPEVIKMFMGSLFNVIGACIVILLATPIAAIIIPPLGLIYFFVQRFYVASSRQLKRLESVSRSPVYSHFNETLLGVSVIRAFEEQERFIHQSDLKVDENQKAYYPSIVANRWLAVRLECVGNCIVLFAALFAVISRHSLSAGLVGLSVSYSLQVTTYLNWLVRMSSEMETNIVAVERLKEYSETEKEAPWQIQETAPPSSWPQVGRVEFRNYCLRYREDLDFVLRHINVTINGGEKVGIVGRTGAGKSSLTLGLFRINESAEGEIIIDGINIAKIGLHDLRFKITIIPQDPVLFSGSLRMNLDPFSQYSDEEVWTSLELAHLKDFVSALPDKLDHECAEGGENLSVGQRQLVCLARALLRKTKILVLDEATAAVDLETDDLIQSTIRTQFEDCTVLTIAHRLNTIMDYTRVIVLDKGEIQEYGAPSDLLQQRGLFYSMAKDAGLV

Structure (SMILES) | EC50 [µM]
COc1ccc(NC(=O)Cc2cccc(-n3c(=O)c4c(C)onc4c4c(Cl)cccc43)c2)cc1OC [2-[3-(9-Chloro-3-methyl-4-oxo-4H-isoxazolo[4,3-c]quinolin-5-yl)-phenyl]-N-(3,4-dimethoxy-phenyl)-acetamide] | 4.1
COc1cc(CNCc2cccc(-n3c(=O)c4c(C)onc4c4c(Cl)cccc43)c2)cc(OC)c1OC [9-Chloro-3-methyl-5-{3-[(3,4,5-trimethoxy-benzylamino)-methyl]-phenyl}-5H-isoxazolo[4,3-c]quinolin-4-one] | 1.77
COc1cc(OCCc2cccc(-n3c(=O)c4c(C)onc4c4c(Cl)cccc43)c2)cc(OC)c1OC [9-Chloro-3-methyl-5-{3-[2-(3,4,5-trimethoxy-phenoxy)-ethyl]-phenyl}-5H-isoxazolo[4,3-c]quinolin-4-one] | 1.47
Cc1onc2c1c(=O)n(-c1cccc(CC(=O)Nc3ccc(S(N)(=O)=O)cc3)c1)c1cccc(Cl)c21 [2-[3-(9-Chloro-3-methyl-4-oxo-4H-isoxazolo[4,3-c]quinolin-5-yl)-phenyl]-N-(4-sulfamoyl-phenyl)-acetamide] | > 10
Cc1cc(C(=O)NCc2cccc(-n3c(=O)c4c(C)onc4c4c(Cl)cccc43)c2)no1 [5-Methyl-isoxazole-3-carboxylic acid 3-(9-chloro-3-methyl-4-oxo-4H-isoxazolo[4,3-c]quinolin-5-yl)-benzylamide] | 7.9
Cc1cc(C(=O)N[C@@H]2c3cc(-n4c(=O)c5c(C)onc5c5c(Cl)cccc54)ccc3C[C@H]2O)no1 [5-Methyl-isoxazole-3-carboxylic acid [(1R,2R)-6-(9-chloro-3-methyl-4-oxo-4H-isoxazolo[4,3-c]quinolin-5-yl)-2-hydroxy-indan-1-yl]-amide] | 10
COc1ccc(NC(=O)Cc2cccc(-n3c(=O)c4c(C)onc4c4c(Cl)cccc43)c2)cc1 [2-[3-(9-Chloro-3-methyl-4-oxo-4H-isoxazolo[4,3-c]quinolin-5-yl)-phenyl]-N-(4-methoxy-phenyl)-acetamide] | > 10
COc1cccc(NC(=O)Cc2cccc(-n3c(=O)c4c(C)onc4c4c(Cl)cccc43)c2)c1 [2-[3-(9-Chloro-3-methyl-4-oxo-4H-isoxazolo[4,3-c]quinolin-5-yl)-phenyl]-N-(3-methoxy-phenyl)-acetamide] | 1.8
Cc1onc2c1c(=O)n(-c1cccc(CC(=O)Nc3ccc(F)cc3)c1)c1cccc(Cl)c21 [2-[3-(9-Chloro-3-methyl-4-oxo-4H-isoxazolo[4,3-c]quinolin-5-yl)-phenyl]-N-(4-fluoro-phenyl)-acetamide] | 3.2
COc1cc(N(C)C(=O)Cc2cccc(-n3c(=O)c4c(C)onc4c4c(Cl)cccc43)c2)cc(OC)c1OC [2-[3-(9-Chloro-3-methyl-4-oxo-4H-isoxazolo[4,3-c]quinolin-5-yl)-phenyl]-N-methyl-N-(3,4,5-trimethoxy-phenyl)-acetamide] | 0.64
COC(=O)c1ccc(NC(=O)Cc2cccc(-n3c(=O)c4c(C)onc4c4c(Cl)cccc43)c2)cc1 [4-{2-[3-(9-Chloro-3-methyl-4-oxo-4H-isoxazolo[4,3-c]quinolin-5-yl)-phenyl]-acetylamino}-benzoic acid methyl ester] | > 10
COc1cc(NC(=O)Cc2cccc(-n3c(=O)c4c(C)onc4c4c(Cl)cccc43)c2)cc(OC)c1 [2-[3-(9-Chloro-3-methyl-4-oxo-4H-isoxazolo[4,3-c]quinolin-5-yl)-phenyl]-N-(3,5-dimethoxy-phenyl)-acetamide] | 2.1
Cc1onc2c1c(=O)n(-c1cccc(CC(=O)Nc3ccc(C(C)(C)C)cc3)c1)c1cccc(Cl)c21 [N-(4-tert-Butyl-phenyl)-2-[3-(9-chloro-3-methyl-4-oxo-4H-isoxazolo[4,3-c]quinolin-5-yl)-phenyl]-acetamide] | > 10
Cc1onc2c1c(=O)n(-c1cccc(CC(=O)Nc3ccc4c(c3)OCO4)c1)c1cccc(Cl)c21 [N-Benzo[1,3]dioxol-5-yl-2-[3-(9-chloro-3-methyl-4-oxo-4H-isoxazolo[4,3-c]quinolin-5-yl)-phenyl]-acetamide] | 4
